Assay results: paper PMC13534789, “Molecular Glue Degraders Enhance CAPRIN1‐Dependent Lysosomal Degradation of APP and Reduce Amyloid β in Alzheimer's Disease” (Advanced Science, 2026)

Experiments:
HEK‐APP695WT cells = test: CellTiter-Glo cell viability, HEK cells; assay type: cell-based, human; conditions: 10 µM, 72 h
CAPRIN1 = target: T1, CAPRIN1 (Homo sapiens, UniProt Q14444); test: SPR, compound onto CAPRIN1 alone; assay type: binding; conditions: immobilized CAPRIN1
T1 construct: 10xHis (followed by a 3C site) (N); made in house; host or cells: Tni (Hi5) insect cells, baculovirus
T1 sequence (Q14444 whole entry): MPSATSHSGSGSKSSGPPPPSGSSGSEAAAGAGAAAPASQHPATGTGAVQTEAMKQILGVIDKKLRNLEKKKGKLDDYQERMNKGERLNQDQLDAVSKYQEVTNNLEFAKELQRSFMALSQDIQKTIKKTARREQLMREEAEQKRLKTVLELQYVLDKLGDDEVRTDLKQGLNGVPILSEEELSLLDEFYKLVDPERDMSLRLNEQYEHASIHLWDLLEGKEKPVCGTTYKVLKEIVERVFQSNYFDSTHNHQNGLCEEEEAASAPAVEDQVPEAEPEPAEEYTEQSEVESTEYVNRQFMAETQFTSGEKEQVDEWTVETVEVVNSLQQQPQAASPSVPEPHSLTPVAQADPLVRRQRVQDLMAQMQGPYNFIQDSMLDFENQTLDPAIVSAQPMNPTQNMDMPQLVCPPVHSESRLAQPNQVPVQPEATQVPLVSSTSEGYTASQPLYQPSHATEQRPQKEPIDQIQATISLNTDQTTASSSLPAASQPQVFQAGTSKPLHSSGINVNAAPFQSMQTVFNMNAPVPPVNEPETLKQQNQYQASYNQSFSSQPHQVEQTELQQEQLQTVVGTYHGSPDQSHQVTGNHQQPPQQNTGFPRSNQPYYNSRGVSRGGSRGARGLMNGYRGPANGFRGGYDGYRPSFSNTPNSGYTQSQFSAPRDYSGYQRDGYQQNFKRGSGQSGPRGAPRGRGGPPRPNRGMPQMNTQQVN
Protocol: SPR experiments were conducted to investigate the interaction between APP695 and CAPRIN1 proteins using a Biacore T200 instrument (Cytiva). Both proteins were expressed in Tni (Hi5) insect cells and purified to homogeneity via tandem affinity and ion‐exchange. Protein purity and integrity were confirmed by SDS‐PAGE and size‐exclusion chromatography prior to analysis. All experiments were performed in a running buffer consisting of 50 mM HEPES at pH7.0, 100 mM KCl, 10% glycerol, and 0.01% (v/v) Tween‐20 supplemented with 0.1% (w/v) Sarkosyl (pH 7.4). APP695 was serially diluted in running buffer to final concentrations of 15, 5, 1, and 0.3 µM. Chip Preparation: A CM5 sensor chip (Cytiva) was activated using a 1:1 (v/v) mixture of 0.1 M N‐hydroxysuccinimide (NHS) and 0.1 M N‐ethyl‐N′‐(3‐dimethylaminopropyl) carbodiimide (EDC) to generate reactive ester groups. CAPRIN1 was diluted to 50 µg/mL in 10 mM Hepes‐KOH buffer (pH 6.0) and immobilized on the chip surface via standard amine coupling to achieve immobilization. Unreacted sites were blocked with 1 M ethanolamine‐HCl (pH 8.5). A reference flow cell was prepared similarly but without protein immobilization to control for non‐specific binding and bulk refractive index changes. Binding assay: Binding interactions were measured at 25°C with a flow rate of 30 µL/min. […]

SUMO1 = SUMO1 protein levels (western / dot blot); assay type: cell-based, human
APP mRNA = test: qRT-PCR of APP mRNA; assay type: cell-based, human; conditions: 72 h
Protocol: Total RNA was isolated using the RNeasy kit (Qiagen), followed by synthesis for cDNA with a reverse transcription reaction (Quantitect Reverse Transcription kit). The sequences for APP and GAPDH are in Table S1. Quantitative PCR was performed on QuantStudio 6 Flex (Applied Biosystems). The expression levels of APP were normalized to the GAPDH mRNA levels and represented relative to the expression in control cells. The results were analyzed with the delta‐delta‐Ct methods. Ct values were calculated using QuantStudio Design & Analysis Software, and relative expression levels were analyzed with GraphPad Prism.

[1] = test system: CAPRIN1, G3BP1, BACE1, ADAM10, PSEN1, nicastrin, GGA1, Sorla, neprilysin; test: Western blot of CAPRIN1, G3BP1 and other AD-related proteins; assay type: cell-based, human; conditions: 10 µM
APP = APP (Homo sapiens, UniProt P05067); test: Western blot of APP in HEK-APP695WT cells; assay type: cell-based; parameters: expressed in transfected cells; conditions: 72 h
Chain of APP (P05067 18-695 isoform P05067-4 limits assumed): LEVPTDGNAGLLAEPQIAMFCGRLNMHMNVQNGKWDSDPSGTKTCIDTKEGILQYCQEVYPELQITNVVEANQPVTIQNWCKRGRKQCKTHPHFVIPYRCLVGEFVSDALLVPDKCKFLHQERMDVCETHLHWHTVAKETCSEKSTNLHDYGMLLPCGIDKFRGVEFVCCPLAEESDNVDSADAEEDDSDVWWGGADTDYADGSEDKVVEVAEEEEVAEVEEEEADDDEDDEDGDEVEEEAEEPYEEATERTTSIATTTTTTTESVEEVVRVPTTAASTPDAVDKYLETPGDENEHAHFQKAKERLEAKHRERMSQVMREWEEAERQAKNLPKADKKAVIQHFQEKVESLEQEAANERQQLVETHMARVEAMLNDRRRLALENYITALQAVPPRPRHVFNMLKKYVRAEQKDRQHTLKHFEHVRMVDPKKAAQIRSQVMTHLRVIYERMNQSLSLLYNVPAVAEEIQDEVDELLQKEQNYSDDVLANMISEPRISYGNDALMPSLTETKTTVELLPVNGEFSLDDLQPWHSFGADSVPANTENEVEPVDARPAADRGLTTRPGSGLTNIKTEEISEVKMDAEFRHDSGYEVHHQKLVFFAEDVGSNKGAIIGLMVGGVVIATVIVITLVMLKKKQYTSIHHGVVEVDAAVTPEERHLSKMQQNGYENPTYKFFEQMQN

CAPRIN1–APP interaction = CAPRIN1–APP interaction (Homo sapiens, UniProt P05067+Q14444); test: In vitro binding assay, recombinant CAPRIN1 and APP (reciprocal co-IP); parameters: recombinant human CAPRIN1 (full length, 100 ng) was added; purchased Biolegend; conditions: concentration-dependent
Chain of CAPRIN1–APP interaction (Q14444 whole entry): as the sequence (Q14444 whole entry) above
Chain of CAPRIN1–APP interaction (P05067 18-770): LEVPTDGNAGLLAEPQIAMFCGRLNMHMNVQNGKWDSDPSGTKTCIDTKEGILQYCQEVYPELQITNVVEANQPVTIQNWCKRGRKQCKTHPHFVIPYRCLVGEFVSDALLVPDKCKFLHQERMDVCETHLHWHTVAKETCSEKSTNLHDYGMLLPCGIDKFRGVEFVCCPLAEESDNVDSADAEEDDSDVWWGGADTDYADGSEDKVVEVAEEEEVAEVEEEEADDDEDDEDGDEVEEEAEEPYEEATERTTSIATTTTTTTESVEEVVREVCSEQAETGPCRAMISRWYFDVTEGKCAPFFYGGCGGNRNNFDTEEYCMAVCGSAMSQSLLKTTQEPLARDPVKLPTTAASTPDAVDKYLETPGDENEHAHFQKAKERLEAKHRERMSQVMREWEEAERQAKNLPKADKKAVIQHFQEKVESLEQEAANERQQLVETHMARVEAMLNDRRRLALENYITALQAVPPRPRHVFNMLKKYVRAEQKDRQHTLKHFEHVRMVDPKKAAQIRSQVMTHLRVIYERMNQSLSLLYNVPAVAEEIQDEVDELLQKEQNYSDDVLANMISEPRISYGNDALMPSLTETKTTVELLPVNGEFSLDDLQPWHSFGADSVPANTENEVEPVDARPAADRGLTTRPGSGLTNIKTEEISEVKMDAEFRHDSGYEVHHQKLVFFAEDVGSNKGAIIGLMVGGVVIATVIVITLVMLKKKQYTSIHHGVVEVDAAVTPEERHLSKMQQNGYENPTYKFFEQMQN
Protocol: When CAPRIN1 was used as a bait, recombinant CAPRIN1 (200 ng) was mixed with anti‐CAPRIN1 antibodies (1 µg) in IP buffer (25 mM Tris, 150 mM NaCl, 5% Glycerol, and 1% Triton X‐100 at pH 7.4) overnight at 4°C, followed by the addition of Protein‐G agarose beads for 4 h at 4°C. CAPRIN1 conjugated beads were then washed with binding buffer (20 mM HEPES, 100 mM NaCl, 0.01% Triron X‐100, and 5% Glycerol at pH 7.25) before the addition of recombinant human APP (prey) for 1 h at 4°C. Beads were washed and eluted with Laemmli buffer with boiling, followed by Western blotting. When APP was used as a bait, biotin‐conjugated APP antibody (1 µg; 4G8, Biolegend) was pre‐mixed with recombinant APP (100 ng, Biolegend) in pulldown buffer (0.1% NP‐40, 50 mM Tris, 150 mM NaCl, 0.2 mM EDTA, 100 mM KCl, 1 mM MgCl2, 0.2 mM CaCl2, and 10% glycerol) overnight at 4°C, followed by addition of 0.5 mg of Streptavidin magnetic beads (Pierce) for 1 h at 4°C. After washing the beads, recombinant human CAPRIN1 (full length, 100 ng) was added together with dose‐dependent 0043 in the binding buffer for 1 h at 4°C. Beads were washed and eluted with Laemmli buffer with boiling, followed by Western blotting.

[2] = Brain/plasma ratio in mice; assay type: in vivo, male C57BL/6 mice; conditions: male, C57BL/6, brain, 10 mg/kg; mouse, PO, 10 mpk; read-out: B/P-Kp (brain-to-plasma partition coefficient)
Protocol: Brain/Plasma Ratio test was processed by Sai Life Sciences Pvt. Ltd. Briefly, twelve male C57BL/6 mice were administered orally with solution formulation of 0152 at 10 mg/kg dose. Blood samples (approximately 60 µL) were collected under light isoflurane anesthesia from a set of three mice at 0.25, 0.5, 1, and 2 h. The blood samples were collected at each time point in labelled micro centrifuge tube containing K2EDTA as anticoagulant. Plasma was harvested by centrifugation of blood and stored at ‐70±10°C until analysis. Immediately after collecting blood, animals were anesthetized, perfused using 10 mL phosphate buffer saline, and brain samples were collected from each mouse at respective time points. Brain samples were homogenized using ice‐cold phosphate buffer saline (pH 7.4), and homogenates were stored below ‐70±10°C until analysis. Total homogenate volume was three times the brain weight. The plasma and brain concentration‐time data of 0152 were used for calculation. Plasma and brain samples were quantified by fit‐for‐purpose LC‐MS/MS method.

SMILES	Cell viability (CellTiter-Glo) (HEK‐APP695WT cells)	Interaction with CAPRIN1 alone (CAPRIN1)	SUMO1 protein levels in cancer cells (SUMO1; HCT116 and LN229 cells)	APP mRNA expression (qRT-PCR) (APP mRNA; AD iPSC-Ns)	APP mRNA (qRT-PCR) (APP mRNA; HEK-APP695WT cells)	CAPRIN1 and G3BP1 protein levels ([1]; HEK-APP695WT cells, 12–72 h)	Levels of other AD-related proteins (BACE1, ADAM10, PSEN1, nicastrin, GGA1, Sorla, neprilysin) ([1]; SAD2.3-Ns, 72 h)	Intracellular APP (western blot) (APP; HEK-APP695WT cells, increasing concentrations)	Effects on APP and Aβ42 in CAPRIN1 KO cells (APP; sgCAPRIN1 HEK-APP695WT cells, 10 µM)	Interaction of recombinant CAPRIN1 and APP (reciprocal co-IP) (CAPRIN1–APP interaction)	Kp [2]	SUMO1 levels in neuronal cells (SUMO1; AG27606-derived neurons, 10 µM, 3 days)
N#Cc1cccc(NC(=O)Nc2nc3ccc(C(=O)N4CCOCC4)cc3s2)c1 [compound 0043]	without inducing cytotoxicity	no noticeable interaction	no effects	nor did it alter APP mRNA expression	no significant changes	no effect	did not affect levels	reduced intracellular APP	abolished	enhanced the interaction between CAPRIN1 and APP	–	–
COc1cccc(NC(=O)Nc2nc3ccc(C(=O)N4CCOCC4)cc3s2)c1 [compound 0152]	–	no noticeable interaction	–	–	–	–	–	–	–	–	0.03	no appreciable change
